The text below walks through data of US20030171408A1, “Therapeutic method of delivering a medicament to avoid irritating effects on membranes of user” (priority 2002, published 2003).

The structures appear in SMILES notation.

For data set [1] the following is noted: cited from earlier work.
For data set [2] the following is noted: metered nasal spray 0.4 mg nicotine equivalent. As to the method:
A subject who was an addicted smoker was provided a metered nasal spray delivering 0.4 mg of nicotine equivalent in form of nicotine diacesulfamate. The nicotine salt was dissolved in water without any other additive ingredients.

For data set [3] the following is noted: powder nasal spray, encapsulated in starch microspheres. As to the method:
A subject is administered nicotine by means of a powder nasal spray. The nicotine is prepared as the diacesulfamate and is encapsulated in starch microspheres.

The conditions of data set [4]: oral inhaler, water solution. As to the method:
A subject is administered nicotine by means of an oral inhaler. The nicotine is prepared as the diacesulfamate and is prepared in water solution.

For data set [5] the following is noted: nasal, single doses of one mg, in man; cited from earlier work.

Turning to `CC1=CC(=O)NS(=O)(=O)O1` [Acesulfamic acid, 6-Methyl-1,2,3-Oxathiazin-4(3H)1,2,2-dioxide H], the “solubility in alcohol and non-polar solvents” value in data set [1] (alcohol and non-polar solvents) is “soluble”. The solubility in water result in data set [1] (water) is “only sparingly soluble”.
As to `CC1=CC(=O)NS(=O)(=O)O1.CC1=CC(=O)NS(=O)(=O)O1.CN1CCC[C@H]1c1cccnc1` [nicotine diacesulfamate], the “relief from desire to smoke” value in data set [2] (addicted smoker, dissolved in water, once in each nostril) is “relief from desire to smoke within two minutes”. Moreover, the “taste and feelings in the nostril” value in data set [2] (in water) was “not unpleasant, but distinctive”. For the same compound, the “irritation to nasal mucosa, throat or lungs” value in data set [2] (in water, once in each nostril) is listed as “No report was made of any irritation to nasal mucosa, nor to the throat or lungs”. Further, in data set [3], the “burning feeling on administration” value is “No burning feeling is noted” and the “relief from cravings to smoke” value is “relief from the cravings to smoke soon after use”. Besides, in data set [4], the “burning feeling in buccal area, throat or lungs” value is “No burning feeling is noted” and the “relief from craving to smoke” value is “relief from craving to smoke soon after use”.
`CN1CCCC1c1cccnc1` (stereo not shown) [nicotine]: in data set [5], the “time to maximum concentration” value is at most 10 min.
